Measurements published in article PMC11672294, “The Antipsychotic Drug Aripiprazole Suppresses Colorectal Cancer by Targeting LAMP2a to Induce RNH1/miR‐99a/mTOR‐Mediated Autophagy and Apoptosis” (Advanced Science, 2024).
Structures can show the parent of a compound that is named as a salt.

Test system: HT29
Settings: 72 h, relative to DMSO, 10 µM, Relative cell viability (%)
In short: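 Cells were exposed to drug for 72 h, then to WST-1 for 2 h at 37 °C, and absorbance was read at 450 nm as viability against DMSO treatment. In the screen, each compound was applied at 10 µM.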

Structure (SMILES) | Relative cell viability (%) [%]
CC/C(=C(\c1ccccc1)c1ccc(OCCN(C)C)cc1)c1ccccc1 [Tamoxifen Citrate] | 47.42
CCOC(=O)C1=C(COCCN)NC(C)=C(C(=O)OC)C1c1ccccc1Cl (centres unmarked) [Amlodipine] | 88.54

Same assay, conditions: 72 h, relative to DMSO; 10 µM

Structure (SMILES) | Relative cell viability (%) [%]
CCOC(=O)[C@H](CCc1ccccc1)N[C@@H](C)C(=O)N1CCC[C@H]1C(=O)O [Enalapril Maleate] | 98.82
CCc1oc2ccccc2c1C(=O)c1cc(Br)c(O)c(Br)c1 [Benzbromarone] | 82.12
Nc1nc(F)nc2c1ncn2[C@@H]1O[C@H](COP(=O)(O)O)[C@@H](O)[C@@H]1O [Fludarabine Phosphate] | 52.49
COc1ccc(C(=O)c2ccccc2)c(O)c1 [Oxybenzone] | 118.8
CC[C@H](C)C(=O)O[C@H]1C[C@@H](C)C=C2C=C[C@H](C)[C@H](CC[C@@H]3C[C@@H](O)CC(=O)O3)[C@H]21 [Lovastatin] | 169.7
CNC[C@H](O)c1ccc(O)c(O)c1 [Epinephrine HCl] | 70.87
CC[C@@]1(O)C(=O)OCc2c1cc1n(c2=O)Cc2cc3c(CN(C)C)c(O)ccc3nc2-1 [Topotecan HCl] | 16.67
COC1=C(OC)C(=O)C(CCCCCCCCCCO)=C(C)C1=O [Idebenone] | 41.75
COc1ccc2c(c1)c(CC(=O)OCC(=O)O)c(C)n2C(=O)c1ccc(Cl)cc1 [Acemetacin] | 81.07
FC(F)(F)c1ccc(CNc2ccc(Cc3c[nH]c4ncc(Cl)cc34)cn2)cn1 [Pexidartinib (PLX3397)] | 54.7
Cc1cnc(Nc2ccc(OCCN3CCCC3)cc2)nc1Nc1cccc(S(=O)(=O)NC(C)(C)C)c1 [TG101348 (SAR302503)] | 16.99
COCCCOc1cc(C[C@@H](C[C@H](N)[C@@H](O)C[C@H](C(=O)NCC(C)(C)C(N)=O)C(C)C)C(C)C)ccc1OC [Aliskiren Hemifumarate] | 106.1
Nc1ncn([C@@H]2O[C@H](CO)[C@@H](O)[C@H]2O)c(=O)n1 [Azacitidine] | 56.36
O=C(O)CCNC(=O)c1ccccc1 [Betamipron] | 90.303
Clc1ccc(C(c2ccccc2Cl)C(Cl)Cl)cc1 (centres unmarked) [Mitotane] | 63.98
CCOC(=O)c1ccc(OC(=O)CCCCCNC(=N)N)cc1 [Gabexate Mesylate] | 124.4
CC12CC3CC(C)(C1)CC(N)(C3)C2 [Memantine HCl] | 108.7
CCN(c1cc(-c2ccc(CN3CCOCC3)cc2)cc(C(=O)NCc2c(C)cc(C)[nH]c2=O)c1C)C1CCOCC1 [EPZ-6438] | 121.4
CCC1(c2ccccc2)C(=O)NCNC1=O [Primidone] | 178.2
O[C@@H]1CO[C@H]2[C@@H]1OC[C@@H]2O [Isosorbide] | 83.94
COc1ccc(C(=O)CC(=O)c2ccc(C(C)(C)C)cc2)cc1 [Avobenzone] | 117.3
COc1ncc(-c2ccc3nccc(-c4ccnnc4)c3c2)cc1NS(=O)(=O)c1ccc(F)cc1F [GSK2126458 (GSK458)] | 12.62
CCc1cnn2c(NCc3ccc[n+]([O-])c3)cc(N3CCCC[C@H]3CCO)nc12 [Dinaciclib (SCH727965)] | 33.01
Cn1nnc2c(C(N)=O)ncn2c1=O [Temozolomide] | 86.76
COC(=O)C1=C(C)NC(C)=C(C(=O)OCC(C)C)C1c1ccccc1[N+](=O)[O-] (centres unmarked) [Nisoldipine] | 56.36
Cc1ccccc1C(OCCN(C)C)c1ccccc1 (centres unmarked) [Orphenadrine Citrate] | 102.4

Structure (SMILES) | Relative cell viability (%) [%]
CS(=O)(=O)c1ccc([C@@H](O)[C@@H](CF)NC(=O)C(Cl)Cl)cc1 [Florfenicol] | 85.76
c1cn2cc(-c3ccc4cn[nH]c4c3)nc(Nc3ccc(N4CCOCC4)cc3)c2n1 [GS-9973] | 116.2
C=CC[C@@H]1/C=C(\C)C[C@H](C)C[C@H](OC)[C@H]2O[C@@](O)(C(=O)C(=O)N3CCCC[C@H]3C(=O)O[C@H](/C(C)=C/[C@@H]3CC[C@@H](O)[C@H](OC)C3)[C@H](C)[C@@H](O)CC1=O)[C@H](C)C[C@@H]2OC [Tacrolimus (FK506)] | 102.1
CC1CNc2c(cccc2S(=O)(=O)N[C@@H](CCCNC(=N)N)C(=O)N2CC[C@@H](C)C[C@@H]2C(=O)O)C1 (some centres unmarked) [Argatroban] | 123.2
O=c1[nH]c(=O)n([C@H]2C[C@H](O)[C@@H](CO)O2)cc1F [Floxuridine] | 44.7
O=C[C@H](O)[C@@H](O)[C@H](O)CO [Xylose] | 114.9
CCCC(CCC)C(=O)O[C@H]1C[C@H]2CC[C@@H](C1)[N+]2(C)C [Anisotropine Methylbromide] | 55.76
COc1cc2c(cc1Cc1cccc(Cl)c1F)c(=O)c(C(=O)O)cn2[C@H](CO)C(C)C [Elvitegravir (GS-9137, JTK-303)] | 58.4
CCCCC(=O)N(Cc1ccc(-c2ccccc2-c2nnn[nH]2)cc1)[C@H](C(=O)O)C(C)C [Valsartan] | 83.05
CC(C(=O)O)c1ccc2c(c1)CC(=O)c1ccccc1S2 (centres unmarked) [Zaltoprofen] | 88.35
CCc1cc(/C(C)=N/OCc2ccc(C3CCCCC3)c(C(F)(F)F)c2)ccc1CN1CC(C(=O)O)C1 [BAF312 (Siponimod)] | 107.265
COc1ccc(Cl)c(Nc2nc3ccccc3nc2NS(=O)(=O)c2cccc(NC(=O)C(C)(C)N)c2)c1 [Pilaralisib (XL147)] | 48.29
O=C1CCc2ccc(OCCCCN3CCN(c4cccc(Cl)c4Cl)CC3)cc2N1 [aripiprazole] | 49.03
NC12CC3CC(CC(C3)C1)C2 [Amantadine HCl] | 105.5
CCOC(=O)c1ccc(N)cc1 [Benzocaine] | 80.303
CCCCOc1ccc(CC(=O)NO)cc1 [Bufexamac] | 101.5
Cc1c(-c2cnccn2)ssc1=S [Oltipraz] | 84.19
CCN(CC)CCNC(=O)c1ccc(N)cc1 [Procainamide HCl] | 73.94
CCOc1nc2cccc(C(=O)OC(C)OC(=O)OC3CCCCC3)c2n1Cc1ccc(-c2ccccc2-c2nnn[nH]2)cc1 (centres unmarked) [Candesartan Cilexetil] | 195.6
CCCCCCOC(=O)NC(=N)c1ccc(NCc2nc3cc(C(=O)N(CCC(=O)OCC)c4ccccn4)ccc3n2C)cc1 [Dabigatran Etexilate] | 102
Cc1ccc(S(=O)(=O)NC(=O)NN2CC3CCC[C@@H]3C2)cc1 (stereo in doubt) [Gliclazide] | 70.87
C[N+](C)(C)CCO [Choline Chloride] | 79.39
O=C(CCCN1CCN(c2ccccn2)CC1)c1ccc(F)cc1 [Azaperone] | 93.03
CCOc1nc2cccc(C(=O)O)c2n1Cc1ccc(-c2ccccc2-c2noc(=O)[nH]2)cc1 [Azilsartan] | 73.79
CC(C)C[C@H](NC(=O)[C@H](CCc1ccccc1)NC(=O)CN1CCOCC1)C(=O)N[C@@H](Cc1ccccc1)C(=O)N[C@@H](CC(C)C)C(=O)[C@@]1(C)CO1 [Carfilzomib (PR-171)] | 15.53
